How the values were obtained:
[1] = test system: ethylene-induced epinasty in Patio variety tomato plants; assay: Tomato epinasty test, volatile gas treatment; format: in vivo; settings: for Gas @ 10 ppm: visual rating of protection against ethylene-induced epinasty: gas 10 ppm v/v, 10 ppm ethylene, scale 0 to 10 (10 = complete protection); for Gas @ 1000 ppm: visual rating of protection against ethylene-induced epinasty: gas 1000 ppm v/v, 10 ppm ethylene after 4 h, scored 16 h later, scale 0 (no protection) to 10 (complete protection)
Protocol: (§1) Objective: The test procedure is designed to determine the ability of an experimental compound to block the epinastic growth response induced by ethylene in tomato plants when the experimental compound is administered either as a volatile gas or as a component of a spray solution.
(§2) Treatment chambers are of an appropriate size for the test plants and are airtight. Each is fitted with a reusable septum to be used for injection of ethylene. Test plants are Patio variety tomato seedlings planted two plants per three inch square plastic pot.
Volatile gas treatment entails placing two pots of Patio var. tomatoes into a polystyrene 4.8 L volume treatment chamber along with one-half (upper or lower section) of a 50×9 mm plastic Petri dish containing a Gelman filter pad. The appropriate amount of experimental compound, dissolved in 1.0 ml acetone, is pipetted onto the filter pad and the chamber immediately sealed. Four hours later ethylene gas equal to 10 ppm v/v final concentration is injected into the sealed chamber. Sixteen hours later the chambers are opened in an exhaust hood, allowed to air and the plants scored visually for the degree of protection against ethylene-induced epinasty conferred by the experimental compound when compared to ethylene treated and untreated controls on a scale of 0 to 10. A rating of 10 means complete protection. A rating of 0 means no protection from the effects of ethylene. Gas treatment concentrations are volume/volume.

[2] = test system: ethylene-induced epinasty in Patio variety tomato plants; assay: Tomato epinasty test, spray application treatment; format: in vivo; settings: for Spray @10 ppm: visual rating of protection against ethylene-induced epinasty: spray 10 ppm in 10% acetone/90% water, 0.05% Silwett L-77, 10 ppm ethylene, scale 0 to 10 (10 = complete protection)
Protocol: as §1, §2
Spray application treatment entails using a DeVilbiss atomizer to completely cover all foliage and stems of two pots of Patio var. tomato plants with the appropriate amount of experimental compound dissolved in 10% acetone/90% water with 0.05% Silwett L-77 surfactant. Plants are air-dried in a drying hood for four hours then transferred to a 4.8 L polystyrene chamber which is sealed.
Ethylene gas equal to 10 ppm v/v final concentration is injected into the sealed chamber. Sixteen hours later the chambers are opened in an exhaust hood, allowed to air and the plants scored visually for the degree of protection against ethylene-induced epinasty conferred by the experimental compound when compared to ethylene treated and untreated controls on a scale of 0 to 10. A rating of 10 means complete protection. A rating of 0 means no protection from the effects of ethylene.

| Compound | Gas @ 10 ppm: visual rating of protection against ethylene-induced epinasty [1] | Spray @10 ppm: visual rating of protection against ethylene-induced epinasty [2] | Gas @ 1000 ppm: visual rating of protection against ethylene-induced epinasty [1] | other results |
| --- | --- | --- | --- | --- |
| CCC1=C(n2cc(Br)cn2)C1 [Compound 11, 2-(1-(4-Bromopyrazole))-1-ethylcyclopropene] | 2 | 0 |  | Gas, tested at 600 ppm: rating of protection against epinasty ([1]; gas 600 ppm (footnote a), scale 0 to 10): 8^a |
| CCC1=C(n2nc(-c3ccc(Cl)cc3)ccc2=O)C1 [Compound 60, 1-Ethyl-2-(3-(4-chlorophenol)-pyridaz-6-on-1-yl)-cyclopropene] | 4 | 0 | 0 |  |
| C1=C(CCC2CCCCC2)C1 [Compound 21] | 10 | 10 |  |  |
| Cc1cccc(CC2=CC2)c1 [Compound 29] | 10 | 10 |  |  |
| CC1=C(Cc2ccccc2)C1 [Compound 8, 1-methyl-2-benzylcyclopropene] | 0 | 0 | 10 |  |
| C1=C(Cc2cccs2)C1 [Compound 2, 1-(2-Thienyl)methyl-cyclopropene] | 10 | 7 |  |  |
| Cc1nnsc1C(=O)OCCC1=CC1 [Compound 51] | 0 | 0 | 3 | Spray @ 1000 ppm: rating of protection against epinasty ([2]; spray 1000 ppm (in cell), scale 0 to 10): 8 |
| CCCCCCCCC1=C(B2OCO2)C1 [Compound 38, 2-Octyl-1-(2-(2-boro-1,3dioxetane))-cyclopropene] | 3 | 0 |  | Gas, tested at 850 ppm: rating of protection against epinasty ([1]; gas 850 ppm (footnote b or in cell), scale 0 to 10): 10(@850 |
| CC1(CCc2ccccc2)C=C1 [Compound 19] | 2 | 2 | 7.5 |  |
| O=C(O)CCC1=C(Br)C1 [Compound 77] | 8 | 2 |  |  |
| ClC1=C(c2ccccc2)C1(Cl)Cl [Compound 41, 1-Phenyl-2,3,3-trichlorocyclopropene] | 0 | 0 | 2 |  |
| CCCCCCCCC1=C(B(O)O)C1 [Compound 86, 2-Octyl-1-(boronic acid)-cyclopropene] | 10 | 0 |  |  |
| O=C(OCCCCCCCC1=CC1)C1CCCO1 (stereo not drawn) [Compound 54] | 0 | 0 | 2 |  |
| Cc1ccc(CC2=CC2)cc1 [Compound 24] | 10 | 10 |  |  |
| COc1cccc(C(O)C2=C(C)C2)c1 (stereo not drawn) [Compound 39, 1-Methyl-2-(hydroxy(3-methoxyphenyl)methyl)cyclopropene] | 2 | 0 | 10 |  |
| O=C(OCCC1=CC1)c1cc2ccccc2o1 [Compound 49] | 0 | 0 |  | Gas @ 343.4 ppm: rating of protection against epinasty ([1]; gas 343.4 ppm (in cell), scale 0 to 10): 9(@343.4 |

| Compound | Gas @ 10 ppm: visual rating of protection against ethylene-induced epinasty [1] | Spray @10 ppm: visual rating of protection against ethylene-induced epinasty [2] | Gas @ 1000 ppm: visual rating of protection against ethylene-induced epinasty [1] | other results |
| --- | --- | --- | --- | --- |
| Cc1cc(C)c(CC2=CC2)c(C)c1 [Compound 30] | 3 | 0 | 8 |  |
| C1=C(CCCC2OCCO2)C1 [Compound 33] | 8 | 0 |  |  |
| CC1(COc2ccccc2)C=C1 [Compound 7, 3-Methyl-3-Phenoxymethylcycloprop-2-ene] | 4 | 2 | 10 |  |
| C1=C(CCCCc2ccccc2)C1 [Compound 27] | 10 | 10 |  |  |
| CCCCCCCCC1=C([Si](C)(C)C)C1 [Compound 67, 2-Octyl-1-trimethylsilylcyclopropene] | 6 | 3 |  |  |
| CC[Si](CC)(CC)CC1=CC1 [Compound 63, 1-Triethylsilylmethylcyclopropene] | 10 | 10 |  |  |
| CS(=O)(=O)Oc1ccc(C(=O)OCCCCCCCC2=CC2)cc1 [Compound 53, 1-(7-(4-Methanesulfonyloxyphenyl)-carbonyloxyheptyl)-cyclopropene] | 0 | 0 | 10 |  |
| O=C(OCC1=CC1)c1ccco1 [Compound 47] | 0 | 0 |  | Gas @ 551 ppm: rating of protection against epinasty ([1]; gas 551 ppm (in cell), scale 0 to 10): 10(@551 |
| 1-(1-Methyl-2-pyrrolecarbonyloxypropyl)-cyclopropene [Compound 59] | 3 | 4 |  |  |
| 1-((2-Carboxy-N-morpholino)ethyl)-cyclopropene [Compound 15] | 10 | 0 |  |  |
| CC(C)(C)[Si](C)(C)OCCCCCCCC1=CC1 [Compound 82, 1-(7-T-butyldimethylsilyloxyheptyl)-cyclopropene] | 3 | 0 | 10 |  |
| CCC1=C(COc2cccc(C(F)(F)F)c2)C1 [Compound 37, 1-(3-trifluoromethylphenoxymethyl)-2-ethylcyclopropene] | 0 | 0 | 2 |  |
| CS(=O)(=O)OCCCCCCCC1=CC1 [Compound 69, 1-(7-Methanesulfonyloxyheptyl)-cyclopropene] | 0 | 0 | 8 |  |
| O=C(OCCC1=CC1)c1ccoc1 [Compound 48] | 10 |  |  |  |
| CC1=C([Si](C)(C)C)C1(C)C [Compound 79, 1-Trimethylsilyl-2,3,3-trimethylcyclopropene] | 10 |  |  |  |

Source: patent US20110190137A1, “METHOD TO INHIBIT ETHYLENE RESPONSES IN PLANTS” (priority 2003, published 2011)
